The values below come from US9969775B2, “CGRP antagonist peptides” (Ferring B.V., priority 2015, dated 2018).

Assay [1] concerns the target T1, hAM2 receptor (CALCRL:RAMP3) (Homo sapiens, UniProt O60896+Q16602).
T1 construct: expressed in transfected cells; host or cells: GeneBLAzer CALCRL:RAMP3-CRE-bla Freestyle 293F
Kind of assay: AM2 receptor antagonist activity measured by cAMP assay (HTRF). The format is cell-based. As to conditions: for Emax: % MPE: percent of the maximal possible effect, read-out: hAM2-R Efficacy Antag (%) Ave; for Emax / IC50: agonist human adrenomedullin; for IC50: GeneBLAzer CALCRL:RAMP3-CRE-bla Freestyle 293F cells, read-out: hAM2-R IC50 Ave; for selectivity ratio CGRP/AM2: selectivity ratio for hCGRP over hAM2, calculated from the IC50 values.

For assay [2], the target named is T2, hCGRP receptor (CALCRL:RAMP1) (Homo sapiens, UniProt O60894+Q16602).
T2 construct: host or cells: GeneBLAzer CALCRL:RAMP1-CRE-bla Freestyle 293F
Put plainly: CGRP receptor antagonist activity measured by cAMP assay (HTRF). In kind it is cell-based. As to conditions: agonist human α-CGRP; for Emax: % MPE: percent of the maximal possible effect, read-out: hCGRP-R Efficacy Antag (%) Ave; for IC50: GeneBLAzer CALCRL:RAMP1-CRE-bla Freestyle 293F cells, 30 minutes, read-out: hCGRP-R IC50 Ave.

Numbered stars: 1 amine (or outer) side, 2 acyl side, 3 side chain; on linkers, the order of the positions; unused ones are H or OH. Bridge positions count the residues as written; N and C are the ends. Square brackets hold non-standard residues; d marks the D form. Peptide text beside a SMILES is read from it. * marks the point of attachment. Phe(3-CH2NH2) = O=C([C@H](Cc1cccc(CN[*:3])c1)N[*:1])[*:2]; Phe(4-NHCONH2) = NC(=O)Nc1ccc(C[C@H](N)C(=O)O)cc1; Phe(2-CONH2) = NC(=O)c1ccccc1C[C@H](N)C(=O)O; X5 = O=C([C@H](Cc1ccc(CO)cc1)N[*:1])[*:2]; Triazol3yl(1,2,4-5-NH2) = Nc1nc(*)n[nH]1; Phe(4-NH2) = Nc1ccc(C[C@H](N)C(=O)O)cc1; X3 = NCc1ccccc1C[C@H](N[*:1])C(=O)[*:2]; Picolinoyl(5-F) = O=C(c1ccc(F)cn1)*; Orn(iPr) = CC(C)NCCC[C@H](N)C(=O)O; Oxazole2carbonyl = O=C(c1ncco1)*; 3Pal = N[C@@H](Cc1cccnc1)C(=O)O; X4 = O=C(c1ncccc1[N+](=O)[O-])*; Pyrrole2CO = O=C(c1ccc[nH]1)*; Picolinoyl = O=C(c1ccccn1)*; ΔPro = O=C(O)[C@@H]1C=CCN1; Orn = NCCC[C@H](N)C(=O)O; X2 = Cc1n[nH]c(C(=O)*)n1; X11 = O=C(c1ncccc1Cl)*

T1 sequence (Q16602 23-461): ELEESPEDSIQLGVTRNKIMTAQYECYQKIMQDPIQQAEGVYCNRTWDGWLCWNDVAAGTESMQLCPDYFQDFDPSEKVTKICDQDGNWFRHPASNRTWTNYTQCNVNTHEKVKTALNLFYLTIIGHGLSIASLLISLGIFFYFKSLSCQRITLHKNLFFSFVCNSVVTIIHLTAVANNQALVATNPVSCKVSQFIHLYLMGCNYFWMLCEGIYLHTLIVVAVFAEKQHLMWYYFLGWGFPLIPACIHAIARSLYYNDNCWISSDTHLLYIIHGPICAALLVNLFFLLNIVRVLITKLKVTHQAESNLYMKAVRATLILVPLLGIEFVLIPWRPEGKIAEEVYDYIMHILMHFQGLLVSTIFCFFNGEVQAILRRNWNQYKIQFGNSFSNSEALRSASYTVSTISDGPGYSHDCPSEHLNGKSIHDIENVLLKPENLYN
T1 sequence (O60896 24-148): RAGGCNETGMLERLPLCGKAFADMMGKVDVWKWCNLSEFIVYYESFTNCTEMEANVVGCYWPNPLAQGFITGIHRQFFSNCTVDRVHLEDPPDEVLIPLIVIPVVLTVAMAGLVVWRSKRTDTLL
T2 sequence (Q16602 23-461): as the sequence (Q16602 23-461) above
T2 sequence (O60894 27-148): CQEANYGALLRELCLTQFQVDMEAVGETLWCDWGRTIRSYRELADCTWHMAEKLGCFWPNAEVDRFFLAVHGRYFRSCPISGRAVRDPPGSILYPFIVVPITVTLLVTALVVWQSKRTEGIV

For `CC(C)[C@@H]1NC(=O)[C@H](CC(=O)O)NC(=O)[C@H](CCCNC(=N)N)NC(=O)[C@@H](NC(=O)[C@H](Cc2ccc(O)cc2)NC(=O)[C@H](NC(=O)c2ccc[nH]2)C(C)C)CSSC[C@@H](C(=O)N[C@@H](Cc2cccnc2)C(N)=O)NC(=O)[C@H](Cc2ccccc2)NC(=O)[C@@H]2CCCN2C(=O)CNC1=O` [Compound 49] (Pyrrole2CO-[dV]YCRDVGPFC[3Pal]-NH2; disulfide 3-10), in assay [1], the Emax is 99%, the IC50 was 89 nM and the “selectivity ratio CGRP/AM2” value is listed as 461. In assay [2], the Emax was 100% and the IC50 is 0.19 nM.
In the same order, the values of `CC(C)[C@@H]1NC(=O)[C@H](CC(=O)O)NC(=O)[C@H](CCCNC(=N)N)NC(=O)[C@@H](NC(=O)[C@H](Cc2ccc(O)cc2)NC(=O)[C@H](NC(=O)c2ncccc2[N+](=O)[O-])C(C)C)CSSC[C@@H](C(=O)N[C@@H](Cc2cccnc2)C(N)=O)NC(=O)[C@H](Cc2ccccc2)NC(=O)[C@@H]2CCCN2C(=O)CNC1=O` [Compound 50] (X4-[dV]YCRDVGPFC[3Pal]-NH2; disulfide 3-10) are 99%, 8.1 nM, 46, 100% and 0.18 nM.
The corresponding values for `CC(C)[C@@H]1NC(=O)[C@H](CC(=O)O)NC(=O)[C@H](CCCNC(=N)N)NC(=O)[C@@H](NC(=O)[C@H](Cc2ccc(O)cc2)NC(=O)[C@H](NC(=O)c2ncccc2Cl)C(C)C)CSSC[C@@H](C(=O)N[C@@H](Cc2cccnc2)C(N)=O)NC(=O)[C@H](Cc2ccccc2)NC(=O)[C@@H]2CCCN2C(=O)CNC1=O` [Compound 51] (X11-[dV]YCRDVGPFC[3Pal]-NH2; disulfide 3-10) are 100%, 13 nM, 92, 100% and 0.14 nM.
`CC(C)[C@@H]1NC(=O)[C@H](CC(=O)O)NC(=O)[C@H](CCCNc2nc(N)n[nH]2)NC(=O)[C@@H](NC(=O)[C@H](Cc2ccccc2C(N)=O)NC(=O)[C@H](NC(=O)c2ncco2)C(C)C)CSSC[C@@H](C(=O)N[C@@H](Cc2cccnc2)C(N)=O)NC(=O)[C@H](Cc2cccnc2)NC(=O)[C@@H]2CCCN2C(=O)CNC1=O` [Compound 52, Oxazole-2-carbonyl-D-Val-Phe(2-Cbm)-c(Cys-Orn(Atz)-Asp-Val-Gly-Pro-3Pal-Cys)-3Pal-NH2] (Oxazole2carbonyl-[dV][Phe(2-CONH2)]C[Orn](Triazol3yl(1,2,4-5-NH2))DVGP[3Pal]C[3Pal]-NH2; disulfide 3-10): the Emax in assay [1] is 97%; in assay [2], 100%.
Turning to `Cc1n[nH]c(C(=O)N[C@@H](C(=O)N[C@@H](Cc2ccc(O)cc2)C(=O)N[C@H]2CSSC[C@@H](C(=O)N[C@@H](Cc3cccnc3)C(N)=O)NC(=O)[C@H](Cc3ccccc3CN)NC(=O)[C@@H]3CCCN3C(=O)CNC(=O)[C@H](C(C)C)NC(=O)[C@H](CC(=O)O)NC(=O)[C@H](CCCNC(=N)N)NC2=O)C(C)C)n1` [Compound 53, 1H-1,2,4-triazole-5-carbonyl(3-Me)-D-Val-Tyr-c(Cys-Arg-Asp-Val-Gly-Pro-Phe(2-CH2NH2)-Cys)-3Pal-NH2] (X2-[dV]YCRDVGP[X3]C[3Pal]-NH2; disulfide 3-10), in assay [1], the Emax is 98%, the IC50 was 901 nM and the “selectivity ratio CGRP/AM2” value is given as 8130. In assay [2], the Emax is 100% and the IC50 is 0.11 nM.
The corresponding values for `CC(C)NCCC[C@@H]1NC(=O)[C@@H](NC(=O)[C@H](Cc2ccccc2C(N)=O)NC(=O)[C@H](NC(=O)c2ccccn2)C(C)C)CSSC[C@@H](C(=O)N[C@@H](Cc2cccnc2)C(N)=O)NC(=O)[C@H](Cc2cccc(CN)c2)NC(=O)[C@@H]2C=CCN2C(=O)CNC(=O)[C@H](C(C)C)NC(=O)[C@H](CC(=O)O)NC1=O` [Compound 54, Picolinoyl-D-Val-Phe(2-Cbm)-c(Cys-Orn(iPr)-Asp-Val-Gly-Dhp-Phe(3-CH2NH2)-Cys)-3Pal-NH2] (Picolinoyl-[dV][Phe(2-CONH2)]C[Orn(iPr)]DVG[ΔPro][Phe(3-CH2NH2)]C[3Pal]-NH2; disulfide 3-10) are 99%, 150 nM, 898, 100% and 0.17 nM.
In the same order, the values of `CC(C)NCCC[C@@H]1NC(=O)[C@@H](NC(=O)[C@H](Cc2ccc(O)cc2)NC(=O)[C@H](NC(=O)c2ccccn2)C(C)C)CSSC[C@@H](C(=O)N[C@@H](Cc2cccnc2)C(N)=O)NC(=O)[C@H](Cc2ccc(CO)cc2)NC(=O)[C@@H]2CCCN2C(=O)CNC(=O)[C@H](C(C)C)NC(=O)[C@H](CC(=O)O)NC1=O` [Compound 55, Picolinoyl-D-Val-Tyr-c(Cys-Orn(iPr)-Asp-Val-Gly-Pro-Phe(4-CH2OH)-Cys)-3Pal-NH2] (Picolinoyl-[dV]YC[Orn(iPr)]DVGP[X5]C[3Pal]-NH2; disulfide 3-10) are 100%, 137 nM, 746, 100% and 0.18 nM.
As for `CC(C)[C@@H]1NC(=O)[C@H](CC(=O)O)NC(=O)[C@H](CCCN)NC(=O)[C@@H](NC(=O)[C@H](Cc2ccc(O)cc2)NC(=O)[C@H](NC(=O)c2ccc(F)cn2)C(C)C)CSSC[C@@H](C(=O)N[C@@H](Cc2cccnc2)C(N)=O)NC(=O)[C@H](Cc2ccc(CO)cc2)NC(=O)[C@@H]2CCCN2C(=O)CNC1=O` [Compound 56, Picolinoyl(5-F)-D-Val-Tyr-c(Cys-Orn-Asp-Val-Gly-Pro-Phe(4-CH2OH)-Cys)-3Pal-NH2] ({Picolinoyl(5-F)}-[dV]YC[Orn]DVGP[X5]C[3Pal]-NH2; disulfide 3-10), in assay [1], the Emax was 100%, the IC50 is 55 nM and the “selectivity ratio CGRP/AM2” value is reported as 328. Besides, in assay [2], the Emax was 100% and the IC50 is 0.17 nM.
For the compound `CC(C)NCCC[C@@H]1NC(=O)[C@@H](NC(=O)[C@H](Cc2ccccc2C(N)=O)NC(=O)[C@H](NC(=O)c2ncco2)C(C)C)CSSC[C@@H](C(=O)N[C@@H](Cc2cccnc2)C(N)=O)NC(=O)[C@H](Cc2ccc(O)cc2)NC(=O)[C@@H]2C=CCN2C(=O)CNC(=O)[C@H](C(C)C)NC(=O)[C@H](CC(=O)O)NC1=O` [Compound 57, Oxazole-2-carbonyl-D-Val-Phe(2-Cbm)-c(Cys-Orn(iPr)-Asp-Val-Gly-Dhp-Tyr-Cys)-3Pal-NH2] (Oxazole2carbonyl-[dV][Phe(2-CONH2)]C[Orn(iPr)]DVG[ΔPro]YC[3Pal]-NH2; disulfide 3-10), in assay [1], the Emax is 99%, the IC50 is 624 nM and the “selectivity ratio CGRP/AM2” value was 5225. Further, in assay [2], the Emax is 100% and the IC50 is 0.12 nM.
On to `CC(C)NCCC[C@@H]1NC(=O)[C@@H](NC(=O)[C@H](Cc2ccccc2C(N)=O)NC(=O)[C@H](NC(=O)c2ncco2)C(C)C)CSSC[C@@H](C(=O)N[C@@H](Cc2cccnc2)C(N)=O)NC(=O)[C@H](Cc2cccnc2)NC(=O)[C@@H]2C=CCN2C(=O)CNC(=O)[C@H](C(C)C)NC(=O)[C@H](CC(=O)O)NC1=O` [Compound 58, Oxazole-2-carbonyl-D-Val-Phe(2-Cbm)-c(Cys-Orn(iPr)-Asp-Val-Gly-Dhp-3Pal-Cys)-3Pal-NH2] (Oxazole2carbonyl-[dV][Phe(2-CONH2)]C[Orn(iPr)]DVG[ΔPro][3Pal]C[3Pal]-NH2; disulfide 3-10), for which, in assay [1], the Emax is 99%, the IC50 was 476 nM and the “selectivity ratio CGRP/AM2” value was 2588. For the same compound, in assay [2], the Emax is 100% and the IC50 was 0.18 nM.
For the compound `CC(C)NCCC[C@@H]1NC(=O)[C@@H](NC(=O)[C@H](Cc2ccccc2C(N)=O)NC(=O)[C@H](NC(=O)c2ncco2)C(C)C)CSSC[C@@H](C(=O)N[C@@H](Cc2cccnc2)C(N)=O)NC(=O)[C@H](Cc2ccc(N)cc2)NC(=O)[C@@H]2C=CCN2C(=O)CNC(=O)[C@H](C(C)C)NC(=O)[C@H](CC(=O)O)NC1=O` [Compound 59, Oxazole-2-carbonyl-D-Val-Phe(2-Cbm)-c(Cys-Orn(iPr)-Asp-Val-Gly-Dhp-4Aph-Cys)-3Pal-NH2] (Oxazole2carbonyl-[dV][Phe(2-CONH2)]C[Orn(iPr)]DVG[ΔPro][Phe(4-NH2)]C[3Pal]-NH2; disulfide 3-10), in assay [1], the Emax was 99%, the IC50 was 467 nM and the “selectivity ratio CGRP/AM2” value is on record as 2770. In addition, in assay [2], the Emax is 100% and the IC50 was 0.17 nM.
Consider `CC(C)NCCC[C@@H]1NC(=O)[C@@H](NC(=O)[C@H](Cc2ccccc2C(N)=O)NC(=O)[C@H](NC(=O)c2ncco2)C(C)C)CSSC[C@@H](C(=O)N[C@@H](Cc2cccnc2)C(N)=O)NC(=O)[C@H](Cc2ccc(NC(N)=O)cc2)NC(=O)[C@@H]2C=CCN2C(=O)CNC(=O)[C@H](C(C)C)NC(=O)[C@H](CC(=O)O)NC1=O` [Compound 60, Oxazole-2-carbonyl-D-Val-Phe(2-Cbm)-c(Cys-Orn(iPr)-Asp-Val-Gly-Dhp-4Uph-Cys)-3Pal-NH2] (Oxazole2carbonyl-[dV][Phe(2-CONH2)]C[Orn(iPr)]DVG[ΔPro][Phe(4-NHCONH2)]C[3Pal]-NH2; disulfide 3-10), for which, in assay [1], the Emax is 100%, the IC50 is 444 nM and the “selectivity ratio CGRP/AM2” value is 3759. In addition, in assay [2], the Emax is 100% and the IC50 is 0.12 nM.
